Data on 7 compounds can be found in patent publication US20100113430A1, “THIOXANTHENE DERIVATES USEFUL TO TREAT INFECTIOUS DISEASES” (BKG PHARMA APS, priority 2007, published 2010).

Type in all cases: cell-based
Assay [1] concerns Fluconazole Resistant Candida albicans clinical isolate. The assay can be described thus: MIC (80% growth inhibition), broth microdilution NCCLS M27-A, fluconazole resistant Candida albicans. The conditions noted are these: Candida albicans. Here is the method:
The antimicrobial effect of N-dealkyl-trans-clopenthixol and N-dealkyl-trans-flupenthixol was studied by exposing cells to 0-8 μg/ml of the compounds in two-fold dilutions. Each experiment was repeated in triple duplicate. MIC values represent the mean values of two separate experiments.
Clinical Isolate of A Fluconazole Resistant Candida albicans from a Patient with Candidemia.
The isolates were subcultured for 24 h on Sabouraud glucose agar before susceptibility testing. Broth microdilution tests were performed according to NCCLS document M27-A (Ref: National Commitee for Clinical Laboratory Standards. (1997). Reference Method for Broth Dilution Antifungal Susceptibility Testing of Yeasts: Approved Standard M27-A. NCCLS, Wayne, Pa.)
Microtitre plates were read spectrophotometrically at 530 nm, after mixing the wells by pipetting to resuspend yeast sediments. The MIC was defined as the lowest drug dilution resulting in 80% growth inhibition.
Background: In broth dilution the organism is exposed to a series of concentrations in liquid medium.

Assay [2] concerns Enterococcus faecalis resistant clinical isolates. As to the kind of experiment: MIC/IC90, resistant clinical isolates of Enterococcus faecalis. As for the experimental part: (§1) Cell growth was tested using the Minimal Inhibitory Concentration (MIC) susceptibility tests by use of the microdilution broth method in accordance to the NCCLS Guidelines (NCCLS Guidelines, Methods for Dilution Antimicrobial Susceptibility Tests for Bacteria That Grow Aerobically; Approved Standard, Sixth Edition, Volume 23; Number 2). The minimum inhibitory concentration (MIC), is defined ad the lowest concentration of drug which inhibits growth of the test organism, in the sense that no visible growth is detected (total inhibition of growth). In example 2 MIC of the compounds used on fungal microorganisms was determined from the IC90 measurements according to NCCLS Guidelines.
(§2) A log phase culture of bacteria was diluted with fresh pre-warmed Mueller-Hinton medium and adjusted to a defined OD at 600 nm in order to give a final concentration of 1×10^4-5 bacteria/ml medium. The bacterial culture was transferred to microtiter-plates and culture was added to each well. Drug was added to the bacterial culture in the wells as two-fold dilution series of drug in order to give final concentrations ranging from 0.03 to 128 μg/ml. Trays were incubated at 37° C. by shaking in a robot analyzer, PowerWavex, software KC^4′ Kebo.Lab, Copenhagen, for 16 h and optical densities were measured at 600 nm during the incubation time in order to record growth curves. Wells containing bacterial culture without drug were used as controls to ensure correct inoculum size and bacterial growth during the incubation. Cultures were tested in order to detect contaminations. Each experiment was repeated in triplicate. MIC values represent the mean values of two separate triplicate experiments. Intra- and interassay variation was <5%.
(§3) Inhibition 90 (IC90) is defined as: OD responding a 90% growth inhibition.
(§4) Clinically relevant isolates were cultured and assayed as described above.

Assay [3] deals with Staphylococci, Micrococci. Including MRSA. The assay can be described thus: MIC/IC90 broad spectrum, Staphylococci and Micrococci. The following applies: 30 strains, 20 resistant (20 MRSA). Here is the method: as §1, §2, §3
(§5) A broad spectrum of bacteria were cultured and assayed as described above for susceptibility towards N-dealkyl-clopenthixol.

Assay [4] concerns multiresistant clinical isolate of Staphylococcus epidermidis. As to the kind of experiment: MIC, microdilution broth method (NCCLS), Staphylococcus epidermidis. Here is the method: as §1
as §2, with “Drug was added to the bacterial culture in the wells as two-fold dilution series of drug in order to give final concentrations ranging from 0.03 to 128 μg/ml.” left out, “triplicate.” for “triplicate. MIC values represent the mean values of two separate triplicate experiments. Intra- and interassay variation was <5%.”
A clinically relevant isolate of Staphylococcus epidermidis was cultured and assayed as described above for susceptibility towards the compounds listed in table 1.

Assay [5] has as its system clinically relevant resistant bacterial isolate S. Aureus. The assay can be described thus: Growth inhibition by cis/trans combinations, resistant isolate S. Aureus. The following applies: Cis-compound 16 μg/ml, Trans-compound 0 μg/ml. Here is the method:
as §1
as §2, with “Wells containing bacterial culture without drug were used as controls to ensure correct inoculum size and bacterial growth during the incubation. Cultures were tested in order to detect contaminations. Each experiment was repeated in triplicate. MIC values represent the mean values of two separate triplicate experiments. Intra- and interassay variation was <5%.” left out

A further assay concerns Streptococci. The assay can be described thus: MIC/IC90 broad spectrum, Streptococci. The conditions noted are these: 30 strains, 20 resistant. As for the experimental part: as §1, §2, §3, §5
The subject of assay [6] is Candida glabrata Multiresistant isolate. As to the kind of experiment: MIC of cis- and trans-forms, Candida glabrata multiresistant isolate. The conditions noted are these: Example 4. Here is the method: as §1
Cultured microorganisms were assayed as described above. Cis- and trans-isomers of N-dealkyl-clopenthixol was added to the cultures.

In assay [7] the test system is Enterococcus faecium resistant clinical isolates. The assay can be described thus: MIC/IC90, resistant clinical isolates of Enterococcus faecium. Here is the method:
as §1, §2
Inhibition 90 (IC90) is defined as: OD responding a 90% growth inhibition. […]
as §4

The subject of the next assay is Gram negative sp. The assay can be described thus: MIC/IC90 broad spectrum, Gram negative sp. The following applies: 25 strains, 20 resistant. Here is the method:
as §1, §2, §3, §5

In assay [8] the test system is Candida albicans clinical isolate. The assay can be described thus: MIC (90% growth inhibition), broth microdilution NCCLS M27-A, Candida albicans. The following applies: strain 1. Candida albicans FR (fluconazole resistant). As for the experimental part:
as §1
The antibacterial effect of demethylated/dealkylated phenothiazine or thioxanthene compounds were studied by growth inhibition studies exposing cells to 0-32 μg/ml of drug. Each experiment was repeated in triplicate. MIC values represent the mean values of two separate triplicate experiments.
(§6) 4 clinical isolates of Candida sp. (including 3 fluconazole resistant isolates) were subcultured for 24 h on Sabouraud glucose agar before susceptibility testing. Broth microdilution tests were performed according to NCCLS document M27-A (Ref: National Committee for Clinical Laboratory Standards. (1997). Reference Method for Broth Dilution Antifungal Susceptibility Testing of Yeasts: Approved Standard M27-A. NCCLS, Wayne, Pa.). Microtitre plates were read spectrophotometrically at 530 nm, after mixing the wells by pipetting to resuspend yeast sediments. In this experiment, the MIC was defined as the lowest drug dilution resulting in 90% growth inhibition.

The test system of assay [9] is Candida glabrata clinical isolates. The assay can be described thus: MIC (90% growth inhibition), broth microdilution NCCLS M27-A, Candida glabrata. As for the experimental part: as §1, with “Guidelines. […]” for “Guidelines.”
as §6

Setting [10] is: multiresistant clinical isolate of Staphylococcus epidermidis, Example 1.
[11] abbreviates: strain 2. Candida glabrata FR (fluconazole resistant).
Setting [12] is: strain 4. Candida glabrata FR (fluconazole resistant).

Values after ≈ are worked out from the molar mass of the structure shown.

Regarding `OC(Cn1cncn1)(Cn1cncn1)c1ccc(F)cc1F` [Fluconazole, reference compound], the MIC in [1] was determined as 128 µg/mL (≈ 418 µM).

For the compound `Clc1ccc2c(c1)/C(=C\CCN1CCNCC1)c1ccccc1S2` [N-dealkyl-cis-clopenthixol, cis-1-(3-(2-chlorothioxanthen-9-ylidene)propyl)piperazine], the MIC is above 8 µg/mL in assay [2] (Enterococcus faecalis 1, VanA); above 8 µg/mL in [2] (Enterococcus faecalis 2, VanA); above 8 µg/mL in assay [2] (Enterococcus faecalis 3, VanA); above 8 µg/mL in assay [2] (Enterococcus faecalis 4, VanB); above 8 µg/mL in assay [2] (Enterococcus faecalis 5, Van B); above 8 µg/mL in [2] (Enterococcus faecalis 6, VanB). Moreover, the MIC in assay [2] (Enterococcus faecalis 7, VanA) was above 8 µg/mL; in assay [2] (Enterococcus faecalis 8, HLAR), above 8 µg/mL; in assay [2] (Enterococcus faecalis 9, HLAR), above 8 µg/mL; in assay [2] (Enterococcus faecalis 10, BLR, CR) it was above 8 µg/mL; in assay [4] (Staphylococcus epidermidis multiresistant isolate, Example 6, isomers alone and 1:1 mixture), above 8 µg/mL; in assay [4] (setting [10]) it was 16 µg/mL (≈ 44.8 µM). Besides, the MIC in [6] was above 16 µg/mL; in assay [7] (Enterococcus faecium 11, VanA), above 8 µg/mL; in assay [7] (Enterococcus faecium 12, VanA), above 8 µg/mL; in assay [7] (Enterococcus faecium 13, VanB), above 8 µg/mL; in assay [7] (Enterococcus faecium 14, HLAR), above 8 µg/mL; in assay [7] (Enterococcus faecium 15, HLAR) it was above 8 µg/mL. Also, the MIC is above 8 µg/mL in [7] (Enterococcus faecium 16, BLR, CR); above 8 µg/mL in assay [7] (Enterococcus faecium 17, VanB); above 8 µg/mL in assay [7] (Enterococcus faecium 18, VanB); above 8 µg/mL in assay [7] (Enterococcus faecium 19, VanB); 16 µg/mL (≈ 44.8 µM) in [7] (Enterococcus faecium multiresistant isolate, Example 4). In addition, the “MIC (mean)” value in [3] was 16 µg/mL (≈ 44.8 µM); against Streptococci it was 16 µg/mL (≈ 44.8 µM); against Gram negative sp. it was above 16 µg/mL. For the same compound, the Growth inhibition in assay [5] came to 100%.

For the compound `Fc1ccc2c(c1)C(=CCCN1CCNCC1)c1ccccc1S2` [N-dealkyl-cis-flupenthixol, cis-1-(3-(2-fluor-thioxanthen-9-ylidene)propyl)piperazine], the minimum inhibitory concentration (MIC) in assay [4] (setting [10]) is 16 µg/mL (≈ 47 µM).

In turn, `FC(F)(F)c1ccc2c(c1)N(CCCN1CCNCC1)c1ccccc1S2` [N-deshydroxy-ethyl-Fluphenazine, reference compound] displayed a minimal inhibitory concentration (MIC) in [4] (setting [10]) of 16 µg/mL (≈ 40.7 µM).

For the compound `CNCCC=C1c2ccccc2Sc2ccc(Cl)cc21` [N-desmethyl-Chlorprothixen, reference compound], the MIC in assay [4] (setting [10]), in [8], in assay [9] (setting [11]), in assay [9] (setting [12]) and in assay [9] (strain 5. Candida glabrata) was 16 µg/mL (≈ 53 µM) each time.

Compound `CNCCCN1c2ccccc2Sc2ccc(Cl)cc21` [N-desmethyl-chlorpromazine, reference compound] registered a minimum inhibitory concentration (MIC) in [4] (setting [10]) of 16 µg/mL (≈ 52.5 µM).

On to “Desmethyl-perphenazin [reference compound]”, for which the MIC in assay [4] (setting [10]), in assay [8], in assay [9] (setting [11]), in [9] (setting [12]) and in assay [9] (strain 5. Candida glabrata) was 16 µg/mL each time.

The MIC is the lowest concentration found to suppress growth.
